According to ChEMBL document CHEMBL3991601, “The target landscape of clinical kinase drugs” (Science, 2017):
Activity calls are given as the source filed them.

Tests used:
[1] = biological target: T1, Glycogen phosphorylase, liver form (Homo sapiens, UniProt P06737); assay type: subcellular, K-562, COLO 205, SK-N-BE(2) and MV-4-11, Cell lysate; conditions: read-out: Kd apparent
T1 sequence (P06737 whole entry): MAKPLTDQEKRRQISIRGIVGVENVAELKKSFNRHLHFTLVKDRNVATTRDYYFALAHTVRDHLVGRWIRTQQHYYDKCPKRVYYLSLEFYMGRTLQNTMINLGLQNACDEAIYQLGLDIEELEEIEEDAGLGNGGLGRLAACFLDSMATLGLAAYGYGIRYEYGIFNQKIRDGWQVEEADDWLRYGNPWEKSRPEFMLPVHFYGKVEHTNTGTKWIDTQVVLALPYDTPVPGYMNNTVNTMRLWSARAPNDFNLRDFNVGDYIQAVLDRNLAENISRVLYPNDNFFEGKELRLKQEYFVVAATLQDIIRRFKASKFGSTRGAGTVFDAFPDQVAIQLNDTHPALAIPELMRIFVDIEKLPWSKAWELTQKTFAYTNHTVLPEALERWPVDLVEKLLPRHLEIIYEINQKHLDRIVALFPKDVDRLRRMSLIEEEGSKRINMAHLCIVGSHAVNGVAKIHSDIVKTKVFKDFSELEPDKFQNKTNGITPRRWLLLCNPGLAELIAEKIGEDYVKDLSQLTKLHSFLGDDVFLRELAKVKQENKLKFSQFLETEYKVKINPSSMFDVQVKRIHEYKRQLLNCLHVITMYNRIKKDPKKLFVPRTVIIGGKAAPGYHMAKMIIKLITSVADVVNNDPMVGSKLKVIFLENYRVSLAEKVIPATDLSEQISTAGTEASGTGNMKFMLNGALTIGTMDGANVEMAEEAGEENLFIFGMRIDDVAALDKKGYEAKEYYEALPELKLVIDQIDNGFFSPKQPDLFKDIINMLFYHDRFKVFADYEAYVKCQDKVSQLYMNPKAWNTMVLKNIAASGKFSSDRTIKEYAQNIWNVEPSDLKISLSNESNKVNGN

[2] = biological target: DNA topoisomerase 2-beta (Homo sapiens, UniProt Q02880)
[3] = biological target: Cyclin-dependent kinase 2 (Homo sapiens, UniProt P24941)
[4] = biological target: Tyrosine-protein kinase Yes (Homo sapiens, UniProt P07947)
[5] = biological target: T2, Serine/threonine-protein kinase TAO3 (Homo sapiens, UniProt Q9H2K8)
T2 sequence (Q9H2K8 whole entry): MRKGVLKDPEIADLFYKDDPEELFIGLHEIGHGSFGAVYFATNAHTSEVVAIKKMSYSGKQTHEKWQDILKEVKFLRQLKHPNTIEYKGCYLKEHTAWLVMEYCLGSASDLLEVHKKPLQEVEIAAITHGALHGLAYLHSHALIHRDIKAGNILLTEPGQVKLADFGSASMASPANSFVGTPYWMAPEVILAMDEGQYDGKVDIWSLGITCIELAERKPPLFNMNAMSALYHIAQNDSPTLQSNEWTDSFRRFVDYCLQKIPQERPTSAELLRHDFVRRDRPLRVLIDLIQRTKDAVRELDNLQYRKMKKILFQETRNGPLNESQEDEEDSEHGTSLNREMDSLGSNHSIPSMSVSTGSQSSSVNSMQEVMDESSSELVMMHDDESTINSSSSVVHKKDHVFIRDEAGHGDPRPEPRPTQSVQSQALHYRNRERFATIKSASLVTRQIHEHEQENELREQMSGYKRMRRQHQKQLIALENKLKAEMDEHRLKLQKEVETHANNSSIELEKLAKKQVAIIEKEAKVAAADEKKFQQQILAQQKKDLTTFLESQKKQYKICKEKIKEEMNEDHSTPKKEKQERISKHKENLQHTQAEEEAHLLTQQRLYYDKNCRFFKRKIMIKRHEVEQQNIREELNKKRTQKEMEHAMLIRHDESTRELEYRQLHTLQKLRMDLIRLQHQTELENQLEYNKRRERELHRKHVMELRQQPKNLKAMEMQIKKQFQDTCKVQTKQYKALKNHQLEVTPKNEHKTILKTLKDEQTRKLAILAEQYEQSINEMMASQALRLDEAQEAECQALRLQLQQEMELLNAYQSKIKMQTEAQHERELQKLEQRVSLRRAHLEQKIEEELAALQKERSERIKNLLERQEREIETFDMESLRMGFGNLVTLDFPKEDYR

[6] = biological target: T3, Glycine--tRNA ligase (Homo sapiens, UniProt P41250)
T3 sequence (P41250 whole entry): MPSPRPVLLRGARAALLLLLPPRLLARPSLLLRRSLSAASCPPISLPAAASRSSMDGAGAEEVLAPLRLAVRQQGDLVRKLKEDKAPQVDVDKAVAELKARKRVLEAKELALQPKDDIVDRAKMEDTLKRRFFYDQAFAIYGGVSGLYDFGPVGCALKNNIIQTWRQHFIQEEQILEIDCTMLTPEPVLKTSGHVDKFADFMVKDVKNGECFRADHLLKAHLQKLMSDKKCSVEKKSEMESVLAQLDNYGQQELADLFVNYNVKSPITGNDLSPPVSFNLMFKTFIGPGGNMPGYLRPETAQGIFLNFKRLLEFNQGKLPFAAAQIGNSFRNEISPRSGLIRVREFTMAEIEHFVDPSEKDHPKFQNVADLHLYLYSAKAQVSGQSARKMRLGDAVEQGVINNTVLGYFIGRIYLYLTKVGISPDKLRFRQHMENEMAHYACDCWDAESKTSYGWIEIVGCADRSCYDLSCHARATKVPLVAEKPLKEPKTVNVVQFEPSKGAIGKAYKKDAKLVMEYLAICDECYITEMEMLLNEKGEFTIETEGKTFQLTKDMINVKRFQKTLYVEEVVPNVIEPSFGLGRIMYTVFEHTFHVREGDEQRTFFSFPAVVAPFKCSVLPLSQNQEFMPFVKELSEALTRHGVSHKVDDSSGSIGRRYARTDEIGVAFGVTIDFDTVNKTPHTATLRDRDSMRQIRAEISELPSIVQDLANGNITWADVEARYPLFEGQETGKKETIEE
Also: in the data inactive means no Kd found up to 30 µM.

Sequence of DNA topoisomerase 2-beta (Q02880 whole entry): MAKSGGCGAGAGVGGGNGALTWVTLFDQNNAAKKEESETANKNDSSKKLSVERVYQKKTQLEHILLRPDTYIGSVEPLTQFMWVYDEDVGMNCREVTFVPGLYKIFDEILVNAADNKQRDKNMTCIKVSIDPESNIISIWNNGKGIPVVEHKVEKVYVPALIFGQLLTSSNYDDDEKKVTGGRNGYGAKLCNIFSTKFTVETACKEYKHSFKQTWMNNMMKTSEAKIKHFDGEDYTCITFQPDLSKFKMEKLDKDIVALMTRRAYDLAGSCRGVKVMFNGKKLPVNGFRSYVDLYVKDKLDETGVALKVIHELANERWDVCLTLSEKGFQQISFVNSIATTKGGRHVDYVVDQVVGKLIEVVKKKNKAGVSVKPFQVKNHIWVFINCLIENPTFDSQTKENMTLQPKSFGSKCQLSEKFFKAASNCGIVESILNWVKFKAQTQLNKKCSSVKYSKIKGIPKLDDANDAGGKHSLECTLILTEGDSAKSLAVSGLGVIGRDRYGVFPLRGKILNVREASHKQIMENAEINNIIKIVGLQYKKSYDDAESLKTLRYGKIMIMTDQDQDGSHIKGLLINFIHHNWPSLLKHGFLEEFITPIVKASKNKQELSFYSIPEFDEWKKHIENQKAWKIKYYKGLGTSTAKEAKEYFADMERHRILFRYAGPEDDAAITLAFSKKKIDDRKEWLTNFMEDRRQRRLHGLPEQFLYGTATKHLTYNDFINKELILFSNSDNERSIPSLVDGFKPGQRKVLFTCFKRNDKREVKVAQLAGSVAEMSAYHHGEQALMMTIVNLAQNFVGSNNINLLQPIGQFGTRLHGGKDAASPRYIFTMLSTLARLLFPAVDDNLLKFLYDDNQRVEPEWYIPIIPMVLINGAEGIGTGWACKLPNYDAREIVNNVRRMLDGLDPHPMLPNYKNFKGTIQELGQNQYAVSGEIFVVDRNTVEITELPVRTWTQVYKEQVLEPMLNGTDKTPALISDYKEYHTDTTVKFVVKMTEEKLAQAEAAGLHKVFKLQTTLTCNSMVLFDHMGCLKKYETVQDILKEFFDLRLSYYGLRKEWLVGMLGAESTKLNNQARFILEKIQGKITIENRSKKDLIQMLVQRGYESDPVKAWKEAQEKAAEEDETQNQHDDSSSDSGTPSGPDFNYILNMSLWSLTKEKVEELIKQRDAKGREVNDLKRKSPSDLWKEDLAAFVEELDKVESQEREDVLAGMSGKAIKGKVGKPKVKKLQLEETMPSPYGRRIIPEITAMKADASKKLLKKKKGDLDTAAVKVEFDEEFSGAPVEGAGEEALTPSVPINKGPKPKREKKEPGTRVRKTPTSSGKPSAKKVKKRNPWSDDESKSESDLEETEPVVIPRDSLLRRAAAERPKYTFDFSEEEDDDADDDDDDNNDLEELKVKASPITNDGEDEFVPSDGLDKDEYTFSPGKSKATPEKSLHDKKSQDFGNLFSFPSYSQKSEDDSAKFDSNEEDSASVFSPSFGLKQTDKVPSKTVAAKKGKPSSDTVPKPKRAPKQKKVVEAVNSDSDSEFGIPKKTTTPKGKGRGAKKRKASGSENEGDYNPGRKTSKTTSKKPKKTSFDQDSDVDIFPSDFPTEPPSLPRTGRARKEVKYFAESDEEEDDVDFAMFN
Sequence of Tyrosine-protein kinase Yes (P07947 whole entry): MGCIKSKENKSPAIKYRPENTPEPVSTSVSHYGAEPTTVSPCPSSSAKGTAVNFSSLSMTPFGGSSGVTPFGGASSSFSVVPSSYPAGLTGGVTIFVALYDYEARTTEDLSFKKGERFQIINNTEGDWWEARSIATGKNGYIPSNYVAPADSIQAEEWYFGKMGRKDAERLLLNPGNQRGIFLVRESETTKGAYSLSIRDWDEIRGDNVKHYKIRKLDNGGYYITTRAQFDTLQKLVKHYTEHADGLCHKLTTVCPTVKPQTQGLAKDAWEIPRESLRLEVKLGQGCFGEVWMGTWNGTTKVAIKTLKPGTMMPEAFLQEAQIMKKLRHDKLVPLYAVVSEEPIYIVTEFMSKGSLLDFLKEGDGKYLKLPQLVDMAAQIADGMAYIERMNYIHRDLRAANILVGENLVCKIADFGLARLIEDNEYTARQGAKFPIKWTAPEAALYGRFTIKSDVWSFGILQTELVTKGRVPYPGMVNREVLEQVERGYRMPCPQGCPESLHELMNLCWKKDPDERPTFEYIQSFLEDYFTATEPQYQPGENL

Structure (SMILES)	Kd [1]	Kd [2]	Kd [3]	Kd [4]	Kd [5]	Kd [6]
O=c1[nH]c([C@@H]2CCCN2)nc2c1oc1ccc(Cl)cc12	> 30 µM (inactive)	> 30 µM (inactive)	> 30 µM (inactive)	> 30 µM (inactive)	2.29 µM (active)	> 30 µM (inactive)
Cn1cc(-c2[nH]c3cc(NC(=O)[C@H](N)C4CCCCC4)cc4c3c2C=NNC4=O)cn1	> 30 µM (inactive)	> 30 µM (inactive)	> 30 µM (inactive)	0.623 µM (active)	> 30 µM (inactive)	> 30 µM (inactive)
CCN1CCN(Cc2ccc(Nc3ncc(F)c(-c4cc(F)c5nc(C)n(C(C)C)c5c4)n3)nc2)CC1 [ABEMACICLIB]	> 30 µM (inactive)	> 30 µM (inactive)		> 30 µM (inactive)	1.72 µM (active)	> 30 µM (inactive)
Cc1c(NC(=O)OC[C@@H]2COCCN2)cn2ncnc(Nc3ccc4c(cnn4Cc4cccc(F)c4)c3)c12 [AC-480]	> 30 µM (inactive)	> 30 µM (inactive)	> 30 µM (inactive)	> 30 µM (inactive)	> 30 µM (inactive)	> 30 µM (inactive)
C=CCn1c(=O)c2cnc(Nc3ccc(N4CCN(C)CC4)cc3)nc2n1-c1cccc(C(C)(C)O)n1 [ADAVOSERTIB]	> 30 µM (inactive)	> 30 µM (inactive)	> 30 µM (inactive)	> 30 µM (inactive)	> 30 µM (inactive)	> 30 µM (inactive)
CN(C)C/C=C/C(=O)Nc1cc2c(Nc3ccc(F)c(Cl)c3)ncnc2cc1O[C@H]1CCOC1 [AFATINIB]	> 30 µM (inactive)	> 30 µM (inactive)				> 30 µM (inactive)
CCc1cc2c(cc1N1CCC(N3CCOCC3)CC1)C(C)(C)c1[nH]c3cc(C#N)ccc3c1C2=O [ALECTINIB]	> 30 µM (inactive)	> 30 µM (inactive)	> 30 µM (inactive)	> 30 µM (inactive)	> 30 µM (inactive)	> 30 µM (inactive)
COc1ccc2c(OCc3nnc4ccc(-c5ccccc5)nn34)ccnc2c1 [AMG-208]	> 30 µM (inactive)	> 30 µM (inactive)	> 30 µM (inactive)	> 30 µM (inactive)	> 30 µM (inactive)	> 30 µM (inactive)
S=C(NCc1ccc2c(c1)OCO2)N1CCN(c2ncnc3c2oc2ccccc23)CC1 [AMUVATINIB]	> 30 µM (inactive)	> 30 µM (inactive)	> 30 µM (inactive)	> 30 µM (inactive)	> 30 µM (inactive)	> 30 µM (inactive)
NC[C@@](O)(c1ccc(Cl)cc1)c1ccc(-c2cn[nH]c2)cc1 [AT-13148]	> 30 µM (inactive)	> 30 µM (inactive)	> 30 µM (inactive)	> 30 µM (inactive)	> 30 µM (inactive)	> 30 µM (inactive)
C[C@@]1(C(=O)Nc2ccc(F)nc2)CCCN1c1nc(Nc2cc(C3CC3)n[nH]2)c2cccn2n1 [BMS-754807]	> 30 µM (inactive)	> 30 µM (inactive)				> 30 µM (inactive)
c1cc(OCCN2CCCCC2)cc(-c2n[nH]c3ccc(-c4nc[nH]n4)cc23)c1 [CC-401]	> 30 µM (inactive)	> 30 µM (inactive)		> 30 µM (inactive)	> 30 µM (inactive)	> 30 µM (inactive)
COc1cc2c(Oc3ccc4[nH]c(C)cc4c3F)ncnc2cc1OCCCN1CCCC1 [CEDIRANIB]	> 30 µM (inactive)	> 30 µM (inactive)				> 30 µM (inactive)
CC1(COc2ccc3c(c2)ncn3-c2ccc3cccc(N4CCC(N)CC4)c3n2)COC1 [CRENOLANIB]	> 30 µM (inactive)	> 30 µM (inactive)	0.128 µM (active)	> 30 µM (inactive)	> 30 µM (inactive)	
O=S(=O)(c1cccc2cnccc12)N1CCCNCC1 [FASUDIL]	> 30 µM (inactive)	> 30 µM (inactive)		> 30 µM (inactive)	> 30 µM (inactive)	> 30 µM (inactive)
CCc1nc(C(N)=O)c(Nc2ccc(N3CCC(N4CCN(C)CC4)CC3)c(OC)c2)nc1NC1CCOCC1 [GILTERITINIB]	> 30 µM (inactive)	> 30 µM (inactive)	> 30 µM (inactive)		> 30 µM (inactive)	> 30 µM (inactive)
C[C@]1(O)C[C@@H](c2nc(-c3ccc4ccc(-c5ccccc5)nc4c3)c3c(N)nccn32)C1 [LINSITINIB]	> 30 µM (inactive)	> 30 µM (inactive)		> 30 µM (inactive)	> 30 µM (inactive)	> 30 µM (inactive)
N#CCNC(=O)c1ccc(-c2ccnc(Nc3ccc(N4CCOCC4)cc3)n2)cc1 [MOMELOTINIB]	> 30 µM (inactive)	> 30 µM (inactive)		> 30 µM (inactive)		> 30 µM (inactive)
CC1(C)CNc2cc(NC(=O)c3cccnc3NCc3ccncc3)ccc21 [MOTESANIB]	> 30 µM (inactive)	> 30 µM (inactive)				> 30 µM (inactive)
CC(C)CC(=O)Nc1[nH]nc2c1CN(C(=O)C1CCN(C)CC1)C2(C)C [PHA-793887]	> 30 µM (inactive)	> 30 µM (inactive)		> 30 µM (inactive)		> 30 µM (inactive)
Cn1cnc2c(F)c(Nc3ccc(Br)cc3Cl)c(C(=O)NOCCO)cc21 [SELUMETINIB]	> 30 µM (inactive)	> 30 µM (inactive)				> 30 µM (inactive)
CC(C)(O)CC(=O)NCCn1ccc2ncnc(Nc3ccc(Oc4cccc(C(F)(F)F)c4)c(Cl)c3)c21 [TAK-285]	> 30 µM (inactive)	> 30 µM (inactive)	> 30 µM (inactive)		> 30 µM (inactive)	> 30 µM (inactive)
Cc1cc(C(=O)Nc2cc(Oc3ccc4nc(NC(=O)C5CC5)cn4n3)ccc2C)n(C)n1 [TAK-593]	> 30 µM (inactive)	> 30 µM (inactive)	> 30 µM (inactive)		> 30 µM (inactive)	> 30 µM (inactive)
COc1cc2c(N3CCN(C(=O)Nc4ccc(OC(C)C)cc4)CC3)ncnc2cc1OCCCN1CCCCC1 [TANDUTINIB]	> 30 µM (inactive)	> 30 µM (inactive)				> 30 µM (inactive)
COc1cc2ncnc(Nc3ccc(O)cc3)c2cc1OC [WHI-P131]	> 30 µM (inactive)	> 30 µM (inactive)		> 30 µM (inactive)	> 30 µM (inactive)	> 30 µM (inactive)
